Test system: T1, horseradish peroxidase (HRP)
T1 construct: gene PRXC1A
Assay: initial rate by absorbance at […] nm, Lineweaver-Burk
Format: biochemical
Conditions: free enzyme; 1 mM H2O2, pH 7.0, 25 °C; HXT 0.5-5.0 mM

- Km: 4.45 mM
Compound: OCCc1ccc(O)c(O)c1 [HXT, hydroxytyrosol]

From publication PMC12246728, “Efficient Oxidative Polymerization of Hydroxytyrosol Using Horseradish Peroxidase Immobilized on a Magnetic Silica‐Coated Nanocatalyst” (Global Challenges, 2025)
